How the values were obtained:
[1] = tested on: HCV replicon in human hepatoma Huh-7 cell line; test: Anti-HCV replicon assay (EC50, luciferase); assay type: cell-based; details: Hepatitis C virus, Huh-7, 72 h
Procedure, shortened: (§1)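 Cytotoxicity (CC50) measured by CellTiter-Glo and antiviral activity (EC50) by luciferase signal from lysed cells, both by luminescence. Replicon-bearing Huh-7 cells, 6000 per well, incubated 3 days at 37 °C with threefold-diluted compound (0.5% DMSO for DMSO-dissolved compounds).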

[2] = CC50 assay (CellTiter-Glo) in Huh-7 HCV replicon cells; assay type: cell-based, human; details: human, 3 days incubation, CellTiter-Glo readout
Procedure, shortened: as §1

SMILES | EC50 [1] [µM] | CC50 at 3 days [2] [µM]
N#CC1(NC(=O)c2ccc(-c3ccc4nc(NCc5ccc(S(N)(=O)=O)cc5)nc(NCC(F)(F)F)c4n3)cc2)CC1 [Example 159, 4-{[4-(2,2,2-Trifluoroethyl)-amino-6-(4-(N-(1-cyano-1-cyclopropyl)-carbamoyl)phenyl)-pyrido[3,2-d]pyrimidin-2-ylamino]-methyl}-benzenesulfonamide] | < 0.1 | > 25
NC(=O)c1ccc(-c2ccc3nc(NCc4ccc(S(N)(=O)=O)cc4)nc(NCC(F)(F)F)c3n2)cc1 [Example 160] | < 0.1 | 5 to 25
CS(=O)(=O)N(CCO)c1cccc(-c2ccc3nc(NCc4ccc(S(N)(=O)=O)cc4)nc(NCC(F)(F)F)c3n2)c1 [Example 161, 4-{[4-(2,2,2-Trifluoroethyl)-amino-6-(4-(3-(N-2-hydroxyethyl)methane-sulfonamido)-phenyl)-pyrido[3,2-d]pyrimidin-2-ylamino]-methyl}-benzenesulfonamide] | < 0.1 | > 25
CS(=O)(=O)CCNc1nc(NCc2ccc(S(N)(=O)=O)cc2)nc2ccc(-c3ccc(C(=O)NC4CC4)cc3)nc12 [Example 162, 4-{[4-(2-Methanesulfonylethyl)-amino-6-(4-(N-cyclopropylcarbamoyl)-phenyl)-pyrido[3,2-d]pyrimidin-2-ylamino]-methyl}-benzenesulfonamide] | 0.1 to 0.25 | > 25
CS(=O)(=O)CCNc1nc(NCc2ccc(S(N)(=O)=O)cc2)nc2ccc(-c3ccc(F)c(NS(=O)(=O)C4CC4)c3)nc12 [Example 164, 4-{[4-(2-Methanesulfonylethyl)-amino-6-(4-(3-cyclopropanesulfonamido-4-fluoro)-phenyl)-pyrido[3,2-d]pyrimidin-2-ylamino]-methyl}-benzenesulfonamide] | 0.1 to 0.25 | > 25
Cc1noc(C)c1-c1ccc2nc(NCc3ccc(S(N)(=O)=O)cc3)nc(NCC(F)(F)F)c2n1 [Example 165, 4-{[6-(3,5-Dimethyl-isoxazol-4-yl)-4-(2,2,2-trifluoro-ethylamino)-pyrido[3,2-d]pyrimidin-2-ylamino]-methyl}-benzenesulfonamide] | < 0.1 | < 5
Cn1cc(-c2ccc3nc(NCc4ccc(S(N)(=O)=O)cc4)nc(NCC(F)(F)F)c3n2)cn1 [Example 166, 4-{[6-(1-Methyl-1H-pyrazol-4-yl)-4-(2,2,2-trifluoro-ethylamino)-pyrido[3,2-d]pyrimidin-2-ylamino]-methyl}-benzenesulfonamide] | < 0.1 | > 25
NS(=O)(=O)c1ccc(CNc2nc(NCC(F)(F)F)c3nc(-c4cnc(N5CCCC5)cn4)ccc3n2)cc1 [Example 167, 4-{[6-(5-Pyrrolidin-1-yl-pyrazin-2-yl)-4-(2,2,2-trifluoro-ethylamino)-pyrido[3,2-d]pyrimidin-2-ylamino]-methyl}-benzenesulfonamide] | < 0.1 | < 5
NS(=O)(=O)c1ccc(CNc2nc(NCC(F)(F)F)c3nc(-c4ccnc(C(F)(F)F)c4)ccc3n2)cc1 [Example 168, 4-{[4-(2,2,2-Trifluoro-ethylamino)-6-(2-trifluoromethyl-pyridin-4-yl)-pyrido[3,2-d]pyrimidin-2-ylamino]-methyl}-benzenesulfonamide] | < 0.1 | > 25
Nc1cc(-c2ccc3nc(NCc4ccc(S(N)(=O)=O)cc4)nc(NCC(F)(F)F)c3n2)ccn1 [Example 169, 4-{[6-(2-Amino-pyridin-4-yl)-4-(2,2,2-trifluoro-ethylamino)-pyrido[3,2-d]pyrimidin-2-ylamino]-methyl}-benzenesulfonamide] | < 0.1 | > 25
NS(=O)(=O)c1ccc(CNc2nc(NCC(F)(F)F)c3nc(-c4csc(N5CCCC5)n4)ccc3n2)cc1 [Example 170, 4-{[6-(2-Pyrrolidin-1-yl-thiazol-4-yl)-4-(2,2,2-trifluoro-ethylamino)-pyrido[3,2-d]pyrimidin-2-ylamino]-methyl}-benzenesulfonamide] | < 0.1 | < 5
NS(=O)(=O)c1ccc(CNc2nc(NCC(F)(F)F)c3nc(-c4ccc(O)cc4)ccc3n2)cc1 [Example 171, 4-{[6-(4-Hydroxy-phenyl)-4-(2,2,2-trifluoro-ethylamino)-pyrido[3,2-d]pyrimidin-2-ylamino]-methyl}-benzenesulfonamide] | < 0.1 | > 25
COc1cc(-c2ccc3nc(NCc4ccc(S(N)(=O)=O)cc4)nc(NCC(F)(F)F)c3n2)ccn1 [Example 172, 4-{[6-(2-Methoxy-pyridin-4-yl)-4-(2,2,2-trifluoro-ethylamino)-pyrido[3,2-d]pyrimidin-2-ylamino]-methyl}-benzenesulfonamide] | < 0.1 | 5 to 25
N#Cc1cc(-c2ccc3nc(NCc4ccc(S(N)(=O)=O)cc4)nc(NCC(F)(F)F)c3n2)ccn1 [Example 173, 4-{[6-(2-Cyano-pyridin-4-yl)-4-(2,2,2-trifluoro-ethylamino)-pyrido[3,2-d]pyrimidin-2-ylamino]-methyl}-benzenesulfonamide] | < 0.1 | > 25
Nc1ncc(-c2ccc3nc(NCc4ccc(S(N)(=O)=O)cc4)nc(NCC(F)(F)F)c3n2)cn1 [Example 174, 4-{[6-(2-Amino-pyrimidin-5-yl)-4-(2,2,2-trifluoro-ethylamino)-pyrido[3,2-d]pyrimidin-2-ylamino]-methyl}-benzenesulfonamide] | < 0.1 | > 25
N#Cc1cccc(-c2ccc3nc(NCc4ccc(S(N)(=O)=O)cc4)nc(NCC(F)(F)F)c3n2)c1 [Example 175, 4-{[6-(3-Cyano-phenyl)-4-(2,2,2-trifluoro-ethylamino)-pyrido[3,2-d]pyrimidin-2-ylamino]-methyl}-benzenesulfonamide] | < 0.1 | > 25
CN1CC[C@H](C(=O)Nc2ccc(-c3ccc4nc(NCc5ccc(S(N)(=O)=O)cc5)nc(OC5CC5)c4n3)cc2)C1 [Example 176, 1-Methyl-pyrrolidine-3-carboxylic acid {4-[4-cyclopropoxy-2-(4-sulfamoyl-benzylamino)-pyrido[3,2-d]pyrimidin-6-yl]-phenyl}-amide] | < 0.1 | > 25
CN1CC[C@H](C(=O)Nc2ccc(-c3ccc4nc(NCc5ccc(S(N)(=O)=O)cc5)nc(NCC(F)(F)F)c4n3)cc2F)C1 [Example 177, 1-Methyl-pyrrolidine-3-carboxylic acid {2-fluoro-4-[2-(4-sulfamoyl-benzylamino)-4-(2,2,2-trifluoro-ethylamino)-pyrido[3,2-d]pyrimidin-6-yl]-phenyl}-amide] | < 0.1 | 5 to 25
CN1CC[C@H](C(=O)Nc2ccc(-c3ccc4nc(NCc5ccc(S(N)(=O)=O)cc5)nc(NCC(F)(F)F)c4n3)cc2)C1 [Example 178, 1-Methyl-pyrrolidine-3-carboxylic acid {4-[2-(4-sulfamoyl-benzylamino)-4-(2,2,2-trifluoro-ethylamino)-pyrido[3,2-d]pyrimidin-6-yl]-phenyl}-amide] | < 0.1 | 5 to 25
NS(=O)(=O)c1ccc(CNc2nc(NCC(F)(F)F)c3nc(-c4ccc(N5CCC(O)C5=O)cc4)ccc3n2)cc1 (stereo not drawn) [Example 179, 4-{[6-[4-(3-Hydroxy-2-oxo-pyrrolidin-1-yl)-phenyl]-4-(2,2,2-trifluoro-ethylamino)-pyrido[3,2-d]pyrimidin-2-ylamino]-methyl}-benzenesulfonamide] | < 0.1 | > 25
NS(=O)(=O)c1ccc(CNc2nc(NCC(F)(F)F)c3nc(-c4ccc(NC(=O)C5(O)CC5)cc4)ccc3n2)cc1 [Example 180, 1-Hydroxy-cyclopropanecarboxylic acid {4-[2-(4-sulfamoyl-benzylamino)-4-(2,2,2-trifluoro-ethylamino)-pyrido[3,2-d]pyrimidin-6-yl]-phenyl}-amide] | < 0.1 | > 25
NS(=O)(=O)c1ccc(CNc2nc(NC3CC3)c3nc(-c4ccc(NC(=O)C5(O)CC5)cc4)ccc3n2)cc1 [Example 181, 1-Hydroxy-cyclopropanecarboxylic acid {4-[4-cyclopropylamino-2-(4-sulfamoyl-benzylamino)-pyrido[3,2-d]pyrimidin-6-yl]-phenyl}-amide] | < 0.1 | < 5
N[C@@H](CO)C(=O)Nc1ccc(-c2ccc3nc(NCc4ccc(S(N)(=O)=O)cc4)nc(NC4CC4)c3n2)cc1 [Example 182, 2-Amino-N-{4-[4-cyclopropylamino-2-(4-sulfamoyl-benzylamino)-pyrido[3,2-d]pyrimidin-6-yl]-phenyl}-3-hydroxy-propionamide] | < 0.1 | 5 to 25
Nc1ncc(-c2ccc3nc(NCc4ccc(S(N)(=O)=O)cc4)nc(NC4CC4)c3n2)s1 [Example 183, 4-{[6-(2-Amino-thiazol-5-yl)-4-cyclopropylamino-pyrido[3,2-d]pyrimidin-2-ylamino]-methyl}-benzenesulfonamide] | < 0.1 | 5 to 25
NS(=O)(=O)c1ccc(CNc2nc(NC3CC3)c3nc(-c4ccc(F)c(NS(=O)(=O)C5CC5)c4)ccc3n2)cc1 [Example 184, 4-{[6-(3-Cyclopropanesulfonylamino-4-fluoro-phenyl)-4-cyclopropylamino-pyrido[3,2-d]pyrimidin-2-ylamino]-methyl}-benzenesulfonamide] | < 0.1 | < 5
NS(=O)(=O)c1ccc(CNc2nc(NC3CC3)c3nc(-c4ccc(C(=O)NC5CC5)cc4)ccc3n2)cc1 [Example 185, N-Cyclopropyl-4-[4-cyclopropylamino-2-(4-sulfamoyl-benzylamino)-pyrido[3,2-d]pyrimidin-6-yl]-benzamide] | < 0.1 | 5 to 25
NC(=O)c1ccc(-c2ccc3nc(NCc4ccc(S(N)(=O)=O)cc4)nc(NC4CC4)c3n2)cc1 [Example 186, 4-[4-Cyclopropylamino-2-(4-sulfamoyl-benzylamino)-pyrido[3,2-d]pyrimidin-6-yl]-benzamide] | < 0.1 | > 25
